Assay results from patent EP3305318A1, “[6R]-5,10-METHYLENETETRAHYDROFOLATE IN 5-FLUOROURACIL BASED CHEMOTHERAPY” (Isofol Medical AB, priority 2016, dated 2018).
Read-outs that look alike come from different tables or passages of the source.

Key:
TS = target: T1, TS (Lacticaseibacillus casei, UniProt P00469); conditions: cited from earlier work
T1 sequence (P00469 1-316): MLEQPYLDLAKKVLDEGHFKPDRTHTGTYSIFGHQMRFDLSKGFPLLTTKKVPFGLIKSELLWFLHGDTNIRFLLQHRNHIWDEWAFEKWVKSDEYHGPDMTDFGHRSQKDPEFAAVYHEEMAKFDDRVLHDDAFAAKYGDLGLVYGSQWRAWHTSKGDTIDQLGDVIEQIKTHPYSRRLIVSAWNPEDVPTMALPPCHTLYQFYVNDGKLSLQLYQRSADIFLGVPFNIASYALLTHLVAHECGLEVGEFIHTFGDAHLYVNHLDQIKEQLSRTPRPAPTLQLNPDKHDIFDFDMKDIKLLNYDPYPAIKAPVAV

solid tumours = conditions: cited from earlier work
colorectal tumors = conditions: cited from earlier work
[1] = system: advanced and recurring head and neck squamous cell cancer; conditions: 5-FU in combination therapies with platinum compounds; cited from earlier work
metastatic breast cancer = conditions: 5-FU combined with cyclophosphamide and methotrexate (CMF); cited from earlier work
colorectal cancer [2] = assay: 5-FU bolus followed by multiple IV boluses of [6R]-MTHF in colorectal cancer patients (Phase I/II dose cohort trial); assay type: in vivo, human; conditions: initial administration of 5-FU followed by multiple IV boluses of [6R]-MTHF, interval of about 10 min - 4 hours between each bolus
Description: As used herein, the term ORR shall refer to the Objective Response Rate, ie. the proportion of patients with reduction in tumor burden of a predefined amount. This shall be calculated as follows: ORR = Sum of partial responses plus complete responses as per RECIST 1.1 (a set of published rules that define when tumours in cancer patients progress during treatments, the responses being defined as: • Complete Response: Disappearance of all target lesions. • Partial Response: At least a 30% decrease in the sum of the diameters of target lesions, taking as reference the baseline sum diameters. (Eisenhauer EA, Therasse P, Bogaerts J, Schwartz LH, Sargent D, Ford R, et al. New response evaluation criteria in solid tumours: revised RECIST guideline (version 1.1). Eur J Cancer. 2009 Jan; 45(2):228-47)
The safety and efficacy of [6R]-5,10-methylenetetrahydrofolate is analyzed in an open-label, multiple-site, Phase I/II Dose Cohort Trial in combination with a fixed dose of 5-Fluorouracil (5-FU) alone or together with a fixed dose of Oxaliplatin or Irinotecan in patients with stage IV colorectal cancer. […]
[6R]-5,10-Methylenetetrahydrofolic acid is formulated as a lyophylised powder containing 100 mg per vial (calculated as free acid). […]

[3] = system: previously untreated metastatic colorectal cancer; conditions: Phase II trial; cited from earlier work
colorectal cancer [4] = conditions: Phase IIb study; cited from earlier work
pancreas cancer = conditions: CoFactor combined with 5-FU, phase I/II; cited from earlier work

Nc1nc2c(c(=O)[nH]1)N1CN(c3ccc(C(=O)N[C@@H](CCC(=O)O)C(=O)O)cc3)C[C@@H]1CN2 [(6S)-isomer]
effect on the natural [6R]-isomer as co-substrate for TS (TS): partial competitive inhibitor

Nc1nc2c(c(=O)[nH]1)N(C=O)C(CNc1ccc(C(=O)N[C@@H](CCC(=O)O)C(=O)O)cc1)CN2 (stereo partly shown) [LV, Leucovorin]
overall response rates (solid tumours; LV added to 5-FU): over 20% | response rate (colorectal tumors; Leucovorin (LV) added to 5-FU): 21%

O=c1[nH]cc(F)c(=O)[nH]1 [5-FU, 5-fluorouracil]
Response rates [1]: around 30% | survival time [1]: around 6 months | overall response rate (solid tumours; 5-FU alone): 10-15% | OS (metastatic breast cancer): around 20 months | reponse rate (metastatic breast cancer): around 20% | response rate (colorectal tumors; 5-FU given as a monotherapy): around 10%

Nc1nc2c(c(=O)[nH]1)N1CN(c3ccc(C(=O)N[C@@H](CCC(=O)O)C(=O)O)cc3)C[C@H]1CN2 [[6R]-MTHF, [6R]-5,10-methylenetetrahydrofolate]
ORRs (objective response rates) (colorectal cancer [2]): 50-60%

Nc1nc2c(c(=O)[nH]1)N1CN(c3ccc(C(=O)N[C@@H](CCC(=O)[O-])C(=O)[O-])cc3)CC1CN2.[Ca+2] (stereo partly shown) [CoFactor®, [6R,S]-5,10-methylene-THF Ca salt]
response rate [3]: 35% | efficacy or safety compared with leucovorin study arm (colorectal cancer [4]): no significant differences | clinical benefit, defined as stable disease or tumor response (pancreas cancer): 40 % of patients
